In assay [1] the target is T1, ALPK1 (Homo sapiens, UniProt Q96QP1).
T1 construct: endogenous in cells; host or cells: HEK293 (A1); HEK293 stably expressing an NF-kB-alkaline phosphatase reporter (A2)
The assay can be described thus: IL-8 secretion by HEK293 cells (IL-8 ELISA) as indication of ALPK1 activation. The format is cell-based. The settings on record: HEK293 cells treated 4 hours, FIG. 6, Table 2A. Here is the method:
HEK293 cells were treated with H1b-ADP derivatives (A1, A2, A3, and A4) or with Compound 28 for 4 hours followed by analysis of IL-8 secretion using an IL-8 enzyme linked immunoassay (ELISA). IL-8 secretion is an indication of ALPK1 activation. The EC50 of each compound was determined using GraphPad Prism.

Assay [2] has as its target T1, ALPK1. The assay can be described thus: NF-kB promoter driven alkaline phosphatase reporter in HEK293 cells (pNPP assay). The format is cell-based. The settings on record: HEK293-NFkB-AP reporter cells treated 7 hours. Here is the method:
NF-kB activation was assayed using HEK293 cells stably expressing an NF-kB reporter construct comprising an NF-kB promoter driving expression of alkaline phosphatase (AP). In this system, activation of NF-kB promoter activity drives the expression of AP which is detected using a chromogenic substrate, para-nitrophenyl phosphate (pNPP).
To assess the ALPK1 agonist activity of test compounds, the HEK293 cells were seeded in 96-well plates and allowed to attach overnight. Cells were then exposed to graded concentrations of compounds A1, A2, A3, A4, A18, A26, A27, A28, and A30. Compound 28 was included as a reference. Following treatment, cell culture supernatants were collected and analyzed for alkaline phosphatase activity using the pNPP assay. The results are shown in FIGS. 7A-7B and Table 2B-C below. The EC50 for each compound was determined using GraphPad Prism.

T1 sequence (Q96QP1 whole entry): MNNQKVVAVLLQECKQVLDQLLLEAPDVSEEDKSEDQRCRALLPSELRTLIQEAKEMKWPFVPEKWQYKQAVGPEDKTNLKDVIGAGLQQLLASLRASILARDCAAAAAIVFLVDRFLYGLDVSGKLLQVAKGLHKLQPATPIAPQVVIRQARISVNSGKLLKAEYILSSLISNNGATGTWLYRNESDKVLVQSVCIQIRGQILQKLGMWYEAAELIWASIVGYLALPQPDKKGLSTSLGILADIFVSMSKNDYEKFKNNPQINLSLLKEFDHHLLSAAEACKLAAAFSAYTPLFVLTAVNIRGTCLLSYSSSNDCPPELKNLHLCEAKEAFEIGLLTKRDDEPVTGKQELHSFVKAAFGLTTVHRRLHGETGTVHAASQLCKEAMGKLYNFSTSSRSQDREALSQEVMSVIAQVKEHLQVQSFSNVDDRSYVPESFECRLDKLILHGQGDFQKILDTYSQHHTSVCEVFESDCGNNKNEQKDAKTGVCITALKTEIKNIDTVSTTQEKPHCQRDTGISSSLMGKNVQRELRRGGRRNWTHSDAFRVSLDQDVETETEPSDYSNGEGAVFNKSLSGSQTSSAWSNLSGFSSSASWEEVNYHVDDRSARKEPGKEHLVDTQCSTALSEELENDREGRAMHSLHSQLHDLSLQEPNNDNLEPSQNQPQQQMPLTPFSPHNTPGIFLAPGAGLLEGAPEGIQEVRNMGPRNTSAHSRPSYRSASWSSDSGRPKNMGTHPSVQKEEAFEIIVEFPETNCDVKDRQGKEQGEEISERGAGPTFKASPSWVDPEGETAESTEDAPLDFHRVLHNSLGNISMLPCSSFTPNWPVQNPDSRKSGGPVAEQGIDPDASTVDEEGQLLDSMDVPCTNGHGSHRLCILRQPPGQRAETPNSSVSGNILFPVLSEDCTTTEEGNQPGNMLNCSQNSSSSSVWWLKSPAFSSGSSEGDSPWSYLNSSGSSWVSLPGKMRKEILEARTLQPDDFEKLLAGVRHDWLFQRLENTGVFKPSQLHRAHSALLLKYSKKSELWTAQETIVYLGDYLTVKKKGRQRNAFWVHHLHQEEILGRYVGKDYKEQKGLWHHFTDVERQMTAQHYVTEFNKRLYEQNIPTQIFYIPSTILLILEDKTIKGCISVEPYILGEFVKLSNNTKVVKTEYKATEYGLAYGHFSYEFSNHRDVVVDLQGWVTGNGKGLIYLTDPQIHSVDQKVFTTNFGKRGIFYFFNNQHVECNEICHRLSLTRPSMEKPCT

Take `CCCCCCCCCCCC(=O)OC[C@H](F)C1O[C@@H](OP(=O)(O)OP(O)(=S)OC[C@H]2O[C@@H](n3cnc4c(N)ncnc43)C(O)C2O)C(OC(C)=O)C(OC(C)=O)[C@@H]1OC(C)=O` (stereo in doubt) [Compound A2, 2S,3S,4S,5S,6S)-2-(((((((2R,3S,4R,5R)-5-(6-amino-9H-purin-9-yl)-3,4-dihydroxytetrahydrofuran-2-yl)methoxy)(hydroxy)phosphorothioyl)oxy)(hydroxy)phosphoryl)oxy)-6-((S)-2-(dodecanoyloxy)-1-fluoroethyl)tetrahydro-2H-pyran-3,4,5-triyl triacetate]: the EC50 turned out to be 7.1 nM in assay [1] and 11.9 nM in assay [2] (FIG. 7A, Table 2B).

Consider `CCCCCCCCCCCCCCCCCC(=O)OC[C@H](F)[C@H]1O[C@@H](OP(=O)(O)OP(O)(=S)OC[C@H]2O[C@@H](n3cnc4c(N)ncnc43)[C@H](O)[C@@H]2O)[C@@H](OC(C)=O)[C@@H](OC(C)=O)[C@@H]1OC(C)=O` (stereo partly drawn) [Compound A1, (2S,3S,4S,5S,6S)-2-(((((((2R,3S,4R,5R)-5-(6-amino-9H-purin-9-yl)-3,4-dihydroxytetrahydrofuran-2-yl)methoxy)(hydroxy)phosphorothioyl)oxy)(hydroxy)phosphoryl)oxy)-6-((S)-1-fluoro-2-(stearoyloxy)ethyl)tetrahydro-2H-pyran-3,4,5-triyl triacetate], for which the EC50 worked out at 3.1 nM in assay [1] and 11 nM in assay [2] (FIG. 7A, Table 2B).

Take `CCCCCCCCCCCCCC(=O)OC[C@H](F)C1O[C@@H](OP(=O)(O)OP(O)(=S)OC[C@H]2O[C@@H](n3cnc4c(N)ncnc43)C(O)C2O)C(OC(C)=O)C(OC(C)=O)[C@@H]1OC(C)=O` (stereo partly drawn) [Compound A3, (2S,3S,4S,5S,6S)-2-(((((((2R,3S,4R,5R)-5-(6-amino-9H-purin-9-yl)-3,4-dihydroxytetrahydrofuran-2-yl)methoxy)(hydroxy)phosphorothioyl)oxy)(hydroxy)phosphoryl)oxy)-6-((S)-1-fluoro-2-(tetradecanoyloxy)ethyl)tetrahydro-2H-pyran-3,4,5-triyl triacetate]: the half-maximal effective concentration (EC50) in assay [1] amounted to 2 nM; in assay [2] (FIG. 7A, Table 2B), 3.9 nM.

`CCCCCCCCC(=O)OC[C@H](F)C1O[C@@H](OP(=O)(O)OP(O)(=S)OC[C@H]2O[C@@H](n3cnc4c(N)ncnc43)C(O)C2O)C(OC(C)=O)C(OC(C)=O)[C@@H]1OC(C)=O` (stereo partly drawn) [Compound A4, (2S,3S,4S,5S,6S)-2-(((((((2R,3S,4R,5R)-5-(6-amino-9H-purin-9-yl)-3,4-dihydroxytetrahydrofuran-2-yl)methoxy)(hydroxy)phosphorothioyl)oxy)(hydroxy)phosphoryl)oxy)-6-((S)-1-fluoro-2-(nonanoyloxy)ethyl)tetrahydro-2H-pyran-3,4,5-triyl triacetate]: the half-maximal effective concentration (EC50) in assay [1] came to 19.2 nM; in assay [2] (FIG. 7A, Table 2B), 19.1 nM.

Consider `CC(=O)OC[C@H](F)[C@H]1O[C@@H](OP(=O)(O)OP(O)(=S)OC[C@H]2O[C@@H](n3ncc4c(N)ncnc43)[C@H](O)[C@@H]2O)[C@@H](OC(C)=O)[C@@H](OC(C)=O)[C@@H]1OC(C)=O` (stereo partly drawn) [Compound A26, (2S,3S,4S,5S,6S)-2-((S)-2-acetoxy-1-fluoroethyl)-6-(((((((2R,3S,4R,5R)-5-(4-amino-1H-pyrazolo[3,4-d]pyrimidin-1-yl)-3,4-dihydroxytetrahydrofuran-2-yl)methoxy)(hydroxy)phosphorothioyl)oxy)(hydroxy)phosphoryl)oxy)tetrahydro-2H-pyran-3,4,5-triyl triacetate], for which a half-maximal response in assay [2] (FIG. 7B, Table 2C) (EC50) required 10100 nM.

With `CC(=O)OC[C@H](F)C1O[C@@H](OP(=O)(O)OP(O)(=S)OC[C@H]2O[C@@H](n3cnc4c(NC(=O)c5ccccc5)ncnc43)C(O)C2O)C(OC(C)=O)C(OC(C)=O)[C@@H]1OC(C)=O` (stereo partly drawn) [Compound A27, (2S,3S,4S,5S,6S)-2-((S)-2-acetoxy-1-fluoroethyl)-6-(((((((2R,3S,4R,5R)-5-(6-benzamido-9H-purin-9-yl)-3,4-dihydroxytetrahydrofuran-2-yl)methoxy)(hydroxy)phosphorothioyl)oxy)(hydroxy)phosphoryl)oxy)tetrahydro-2H-pyran-3,4,5-triyl triacetate], a half-maximal effect in assay [2] (FIG. 7B, Table 2C) (EC50) was put at 37.8 nM.

`CC(=O)OC[C@H](F)[C@H]1O[C@@H](OP(=O)(O)OP(O)(=S)OC[C@H]2O[C@@H](c3coc4c(N)ncnc34)[C@H](O)[C@@H]2O)[C@@H](OC(C)=O)[C@@H](OC(C)=O)[C@@H]1OC(C)=O` (stereo partly drawn) [Compound A28, (2S,3S,4S,5S,6S)-2-((S)-2-acetoxy-1-fluoroethyl)-6-(((((((2R,3S,4R,5S)-5-(4-aminofuro[3,2-d]pyrimidin-7-yl)-3,4-dihydroxytetrahydrofuran-2-yl)methoxy)(hydroxy)phosphorothioyl)oxy)(hydroxy)phosphoryl)oxy)tetrahydro-2H-pyran-3,4,5-triyl triacetate]: in assay [2] (FIG. 7B, Table 2C), the EC50 worked out at 3.9 nM.

`CC(=O)OC[C@H](F)[C@H]1O[C@@H](OP(=O)(O)OP(O)(=S)OC[C@H]2O[C@@H](c3csc(C(N)=O)c3N)[C@H](O)[C@@H]2O)[C@@H](OC(C)=O)[C@@H](OC(C)=O)[C@@H]1OC(C)=O` (stereo partly drawn) [Compound A30, (2S,3S,4S,5S,6S)-2-((S)-2-acetoxy-1-fluoroethyl)-6-(((((((2R,3S,4R,5S)-5-(4-amino-5-carbamoylthiophen-3-yl)-3,4-dihydroxytetrahydrofuran-2-yl)methoxy)(hydroxy)phosphorothioyl)oxy)(hydroxy)phosphoryl)oxy)tetrahydro-2H-pyran-3,4,5-triyl triacetate] returned a concentration for a half-maximal effect (EC50) in assay [2] (FIG. 7B, Table 2C) of 42.3 nM.

(Values after US20220177510A1, “DERIVATIVES OF GYLCERO-MANNO-HEPTOSE ADP FOR USE IN MODULATING IMMUNE RESPONSE” (priority 2019, published 2022).)
